Read-outs that look alike come from different tables or passages of the source.
Assays:
[1] = Cytotoxicity to uninfected MT4 cells (MTT uptake); format: cell-based; details: human
Protocol: (§1) The sample, considered of adequate quality for antiviral testing is assayed as follows:
(§2) The assays are carried out in 96 well (microtitre) panels using the MT4 cell line, infe3cted with IOTCID50 of HIV 3B. The antiviral activity and cytotoxicity of each compound is assayed simultaneously. Three compounds are screened on each panel. Each compound is tested at 100.0, 10.0, 1.0 and 0.1 μM, unless otherwise stated. AZT is included in each assay as a positive control at 10.0, 1.0, 0.1 and 0.01 μM.
(§3) The antiviral activity (in infected cells) and cytotoxicity (to uninfected cells) of each compound is determined by measuring the number of viable cells remaining after 5 days incubation of 37° C. and comparing them with infected or uninfected controls. The number of viable cells is determined by the addition of the tetrazolium dye MTT. […] Following MTT addition, the cells are solubilised with acidified isopropanol and the extent of MTT conversion is measured spectrophotometrically.

[2] = test system: HIV 3B; test: Anti-HIV testing: protection of MT4 cells from virus induced cytopathic effect (MTT uptake); format: cell-based, HIV-1; details: for Antiviral Activity: % Protection: MT4 cells, HIV 3B, 5 days, 37° C.
Protocol: as §1, §2, §3
Antiviral activity is apparent through the ability of compounds to protect the cells from virus induced cytopathic effect. The result is reported as the percentage of cells protected at a given drug concentration.

Cc1cn([C@H]2C[C@H](N=[N+]=[N-])[C@@H](COP(=O)(OC[C@H]3O[C@@H](n4cc(C)c(=O)[nH]c4=O)C[C@@H]3N=[N+]=[N-])Oc3ccc(S(C)(=O)=O)cc3)O2)c(=O)[nH]c1=O [BTG 1704, 4-(methylsulphonyl)phenyl bis (3'-azido thymidin-5'-yl) phosphate]
MCC at 120 h ([1]; estimated, not a quantitative test for cytotoxicity, read-out: toxic concentration of the drug): ~100 µM | MCC at 120 h ([1]; uninfected MT4 cells, 5 days, 37° C., read-out: MTC): 100 µM | Antiviral Activity: % Protection ([2]; 0.001 μM): 9% | Antiviral Activity: % Protection ([2]; 0.01 μM): 21% | Antiviral Activity: % Protection ([2]; 0.1 μM): 91% | Antiviral Activity: % Protection ([2]; 1.0 μM): 91% | Antiviral Activity: % Protection ([2]; 10 μM): 79% | Antiviral Activity: % Protection ([2]; 100 μM): 13% | protection of MT4 cells from HIV-1 cytopathic effect ([2]; concentrations between 0.1 and 10 μM): significant protection
